In ChEMBL document CHEMBL1201862, “PubChem BioAssay data set” (2004):
Calls of active or inactive are those of the source.

What was measured:
[1] = antiviral protection against BTV-induced cell death – arbovirus, BSR cells, confirmation (AID 1250); type: functional;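 also: protection from viral cytopathic effect measured as cell viability by ATP luminescence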
[2] = M. tuberculosis H37Rv growth inhibitors, H37Rv strain (AID 1626); type: functional
Procathepsin L = Procathepsin L (Homo sapiens, UniProt P07711); experiment: CTSL1 protease inhibition – biochemical, QFRET, 1536-well, counter-screen for M1/M17 aminopeptidase inhibitor project, dose response (AID 2214)
Leucine aminopeptidase = molecular target: T1, Leucine aminopeptidase (Plasmodium falciparum 3D7, UniProt Q8IL11); experiment: P. falciparum M17LAP inhibitors, primary screen, biochemical, fluorogenic H-Leu-NHMec substrate, 1536-well (AID 1619); type: functional
T1 sequence (Q8IL11 whole entry): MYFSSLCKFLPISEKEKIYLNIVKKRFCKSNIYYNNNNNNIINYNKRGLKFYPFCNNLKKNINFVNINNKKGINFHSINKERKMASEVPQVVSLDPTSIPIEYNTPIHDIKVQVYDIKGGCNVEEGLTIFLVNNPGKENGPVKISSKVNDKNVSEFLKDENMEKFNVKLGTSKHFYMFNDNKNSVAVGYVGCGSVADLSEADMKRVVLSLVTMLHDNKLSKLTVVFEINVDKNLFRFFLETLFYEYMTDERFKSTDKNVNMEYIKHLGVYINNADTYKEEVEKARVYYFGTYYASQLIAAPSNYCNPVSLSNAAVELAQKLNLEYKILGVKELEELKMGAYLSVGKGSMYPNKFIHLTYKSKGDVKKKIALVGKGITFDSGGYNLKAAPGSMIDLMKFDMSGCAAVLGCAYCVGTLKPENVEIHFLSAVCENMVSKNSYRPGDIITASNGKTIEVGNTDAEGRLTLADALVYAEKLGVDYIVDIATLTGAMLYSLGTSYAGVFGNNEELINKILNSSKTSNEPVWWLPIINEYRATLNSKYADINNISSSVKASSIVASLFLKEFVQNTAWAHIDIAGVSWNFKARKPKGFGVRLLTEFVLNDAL

Aspartyl aminopeptidase = Aspartyl aminopeptidase (Plasmodium falciparum 3D7, UniProt Q8I2J3); experiment: Counterscreen for inhibitors of M1 and M17 aminopeptidases: QFRET-based biochemical high throughput dose response assay for inhibitors of the Plasmodium falciparum M18 Aspartyl Aminopeptidase (PFM18AAP). [Related PubChem assays: 1619 (Screening assay (M17LAP inhibitors).), 1445 (Screening assay (M1AAP inhibitors).)]
[3] = molecular target: Neuropeptide Y receptor type 2 (Homo sapiens, UniProt P49146); type: functional, cell-based;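 also: HEK293 cells expressing the receptor and a CNG channel; stimulus was NPY near EC95 followed by isoproterenol to raise cAMP; antagonist potency measured as restoring cAMP signal that NPY suppresses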
[4] = molecular target: Neuropeptide Y receptor type 1 (Homo sapiens, UniProt P25929); type: functional;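 also: HEK293 cells with a CNG channel challenged with NPY then isoproterenol; potency as antagonist that reverses NPY suppression of cAMP signal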
Protein skinhead-1 = molecular target: T2, Protein skinhead-1 (Caenorhabditis elegans, UniProt P34707); type: functional
T2 sequence (P34707 whole entry): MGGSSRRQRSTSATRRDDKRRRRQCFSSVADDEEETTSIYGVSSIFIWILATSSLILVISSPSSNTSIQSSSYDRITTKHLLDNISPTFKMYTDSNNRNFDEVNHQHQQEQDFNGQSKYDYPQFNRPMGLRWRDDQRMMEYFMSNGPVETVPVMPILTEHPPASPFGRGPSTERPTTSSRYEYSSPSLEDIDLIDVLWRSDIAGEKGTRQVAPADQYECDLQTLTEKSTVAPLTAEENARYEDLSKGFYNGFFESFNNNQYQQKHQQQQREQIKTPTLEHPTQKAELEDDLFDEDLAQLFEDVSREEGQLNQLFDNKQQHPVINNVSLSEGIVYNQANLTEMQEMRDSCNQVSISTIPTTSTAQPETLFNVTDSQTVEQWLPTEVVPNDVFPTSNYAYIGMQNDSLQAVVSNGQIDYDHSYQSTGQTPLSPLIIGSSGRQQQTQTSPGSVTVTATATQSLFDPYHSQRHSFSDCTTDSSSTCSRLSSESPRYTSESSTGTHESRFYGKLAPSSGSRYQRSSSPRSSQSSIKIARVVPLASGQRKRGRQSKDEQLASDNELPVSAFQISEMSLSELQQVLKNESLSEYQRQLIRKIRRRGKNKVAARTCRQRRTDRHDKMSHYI

[5] = molecular target: Mothers against decapentaplegic homolog 3 (Homo sapiens, UniProt P84022); experiment: inhibitors of SMAD-driven TGF-beta signaling – dose response (AID 715); type: functional
[6] = DRD fibroblast viability loss – cell-based, non-viral oncogenic, luminescence, dose response (AID 1934); type: functional; settings: Homo sapiens
Ion channel NompC = Ion channel NompC (Danio rerio, UniProt Q7T1G6); experiment: Dose response cell-based high-throughput screening assay for agonists of the transient receptor potential channel N1 (TRPN1). [Related pubchem assays (depositor defined):AID1424, AID1448]; type: functional
Cytochrome P450 2D6 = Cytochrome P450 2D6 (Homo sapiens, UniProt P10635);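 also: CYP2D6 member of a cytochrome P450 panel assay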
INS1 = experiment: INS-1E survival protection against cytokine death – cell-based, luminescence, retest, dose response (AID 449756); type: functional; settings: Rattus norvegicus;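 also: cell death triggered by IL-1 beta plus TNF-alpha plus IFN-gamma mixture; protective hits raise ATP signal compared with cytokine alone wells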
[7] = HEK-293T viability loss after treatment – luminescence, T-cell screen hits, cytotoxicity control for TCR NF-kB inhibitor project, dose response (AID 489026); type: functional, cell-based;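 also: cells exposed to compound about 14 hours before the viability readout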
[8] = molecular target: T3, Sphingosine 1-phosphate receptor 4 (Homo sapiens, UniProt O95977); experiment: Fluorescence dose response cell-based high throughput screening assay for antagonists of the Sphingosine 1-Phosphate Receptor 4 (S1P4). [Related pubchem assays: 1524 (Confirmation in triplicates.), 1510 (Primary screen.)]; type: functional
T3 sequence (O95977 whole entry): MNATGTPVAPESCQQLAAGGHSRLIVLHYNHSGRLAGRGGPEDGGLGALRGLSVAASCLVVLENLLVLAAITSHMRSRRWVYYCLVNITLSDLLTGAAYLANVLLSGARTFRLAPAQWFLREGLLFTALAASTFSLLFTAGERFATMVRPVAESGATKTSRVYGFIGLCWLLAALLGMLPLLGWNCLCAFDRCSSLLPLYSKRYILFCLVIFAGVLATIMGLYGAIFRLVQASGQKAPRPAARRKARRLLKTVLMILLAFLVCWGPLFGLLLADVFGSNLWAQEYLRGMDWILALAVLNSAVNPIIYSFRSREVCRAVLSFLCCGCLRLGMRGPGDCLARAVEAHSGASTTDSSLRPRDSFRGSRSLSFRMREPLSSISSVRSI

BJ [9] = experiment: growth inhibition of engineered Ras-driven BJ cells – cell-based, alamar blue fluorescence, cherrypicked samples, dose response (AID 2631); type: functional; settings: Homo sapiens;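 also: confirmatory dose-response assay in RAS-dependent BJ fibroblasts engineered with TERT, LT and ST, with cytotoxicity read by fluorescence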
[10] = molecular target: T3, Sphingosine 1-phosphate receptor 4; experiment: Late stage fluorescence dose response cell-based screening assay for antagonists of the Sphingosine 1-Phosphate Receptor 4 (S1P4). [Related pubchem assays: 1524 (Confirmation screen (S1P4 antagonists).), 1510 (Primary screen (S1P4 antagonists).), 1853 (Summary AID (S1P4 antagonists).), 1692 (Dose response screen (S1P4 antagonists).)]; type: functional
BJ [11] = experiment: BJ-TERT-LT-ST fibroblast viability loss – cell-based, RAS-independent, luminescence, dose response (AID 1935); type: functional; settings: Homo sapiens;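 also: BJ fibroblasts immortalized with TERT plus LT and ST oncogenes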
[12] = molecular target: Sphingosine 1-phosphate receptor 1 (Homo sapiens, UniProt P21453); type: functional;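 also: Tango beta-arrestin reporter U2OS cells stimulated with S1P near its EC80; inhibitor potency meaning antagonism of receptor activation by the natural agonist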
Mucolipin-3 = molecular target: T4, Mucolipin-3 (Homo sapiens, UniProt Q8TDD5); experiment: Fluorescence counterscreen assay for […] agonists: dose response cell-based high-throughput screening assay to identify agonists of the transient receptor potential channel ML3 (TRPML3). [Related pubchem assays: 1424, 1448 ]; type: functional
T4 sequence (Q8TDD5 whole entry): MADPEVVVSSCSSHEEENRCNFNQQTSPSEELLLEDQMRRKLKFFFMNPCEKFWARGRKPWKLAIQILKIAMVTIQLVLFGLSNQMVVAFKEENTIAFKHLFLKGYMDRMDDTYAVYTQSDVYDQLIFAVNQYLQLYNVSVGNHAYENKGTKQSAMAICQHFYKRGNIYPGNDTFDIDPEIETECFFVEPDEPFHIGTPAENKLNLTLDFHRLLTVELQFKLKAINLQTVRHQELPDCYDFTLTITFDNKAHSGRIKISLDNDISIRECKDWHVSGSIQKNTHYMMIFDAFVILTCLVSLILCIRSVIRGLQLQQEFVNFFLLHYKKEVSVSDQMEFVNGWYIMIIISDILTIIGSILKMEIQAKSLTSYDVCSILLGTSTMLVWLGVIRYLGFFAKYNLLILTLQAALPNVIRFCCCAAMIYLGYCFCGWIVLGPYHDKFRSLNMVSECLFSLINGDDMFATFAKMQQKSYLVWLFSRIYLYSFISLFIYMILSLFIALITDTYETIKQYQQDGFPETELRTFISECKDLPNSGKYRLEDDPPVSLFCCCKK

BJ [13] = experiment: cells; type: functional, cell-based; settings: Homo sapiens
BJ [14] = experiment: BJ-TERT fibroblast viability loss – cell-based, RAS-independent, luminescence, dose response (AID 1933); type: functional; settings: Homo sapiens
[15] = Luminescence Cell-Based Dose Confirmation HTS to Identify Inhibitors of Polyadenylation.; type: functional
Estrogen receptor = molecular target: T5, Estrogen receptor (Homo sapiens, UniProt P03372);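 also: potency for inhibiting coactivator peptide recruitment to the receptor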
T5 sequence (P03372 whole entry): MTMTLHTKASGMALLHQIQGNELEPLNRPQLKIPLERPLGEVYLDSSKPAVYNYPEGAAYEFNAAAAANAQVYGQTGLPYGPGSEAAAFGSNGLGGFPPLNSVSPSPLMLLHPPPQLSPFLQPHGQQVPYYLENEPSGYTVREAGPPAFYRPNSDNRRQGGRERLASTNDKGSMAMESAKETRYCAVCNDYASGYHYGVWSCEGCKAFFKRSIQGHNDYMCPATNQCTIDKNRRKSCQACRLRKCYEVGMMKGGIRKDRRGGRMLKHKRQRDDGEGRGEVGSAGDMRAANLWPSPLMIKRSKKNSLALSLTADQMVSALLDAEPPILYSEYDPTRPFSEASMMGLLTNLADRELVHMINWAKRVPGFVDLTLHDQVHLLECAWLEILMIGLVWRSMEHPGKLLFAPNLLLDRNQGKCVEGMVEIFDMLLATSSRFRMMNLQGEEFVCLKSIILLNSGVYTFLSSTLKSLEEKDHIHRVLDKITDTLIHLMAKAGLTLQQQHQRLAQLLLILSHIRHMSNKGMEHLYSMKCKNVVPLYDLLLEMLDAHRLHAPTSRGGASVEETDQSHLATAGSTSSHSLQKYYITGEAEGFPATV

[16] = viability loss in HEK293T cells – cell-based, cherry-picks, cytotoxicity control for HIV Vif inhibitor project, dose response (AID 652208); type: functional
[17] = viability of uninfected HEp-2 cells – cell-based, HTS, cytotoxicity control for RSV inhibitor project, dose response (AID 2410); type: functional; settings: human respiratory syncytial virus
[18] = molecular target: T6, Endoribonuclease toxin MazF (Escherichia coli K-12, UniProt P0AE70); experiment: activation of MazEF endoribonuclease cleavage – biochemical, fluorescence, single-stranded RNA substrate, uHTS hits, dose response (AID 588481); type: functional
T6 sequence (P0AE70 whole entry): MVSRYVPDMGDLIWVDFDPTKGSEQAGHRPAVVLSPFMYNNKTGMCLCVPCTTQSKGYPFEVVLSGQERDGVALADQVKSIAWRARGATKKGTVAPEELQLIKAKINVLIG

[19] = molecular target: T6, Endoribonuclease toxin MazF; experiment: substrate-only fluorescence increase artefacts – biochemical, single-stranded RNase substrate, counter-screen for MazEF activator project, dose response (AID 588502); type: functional
Genome polyprotein = Genome polyprotein (dengue virus type 2, UniProt P29990); experiment: flavivirus cap methylation enzyme inhibition – biochemical, confirmation dose response, primary screen (AID 588689); type: functional
[20] = molecular target: T7, Mannose-6-phosphate isomerase (Homo sapiens, UniProt P34949); experiment: MPI inhibition at elevated mannose 6-phosphate – biochemical, fluorescence intensity, high mannose 6-phosphate, primary screen (AID 1220)
T7 sequence (P34949 whole entry): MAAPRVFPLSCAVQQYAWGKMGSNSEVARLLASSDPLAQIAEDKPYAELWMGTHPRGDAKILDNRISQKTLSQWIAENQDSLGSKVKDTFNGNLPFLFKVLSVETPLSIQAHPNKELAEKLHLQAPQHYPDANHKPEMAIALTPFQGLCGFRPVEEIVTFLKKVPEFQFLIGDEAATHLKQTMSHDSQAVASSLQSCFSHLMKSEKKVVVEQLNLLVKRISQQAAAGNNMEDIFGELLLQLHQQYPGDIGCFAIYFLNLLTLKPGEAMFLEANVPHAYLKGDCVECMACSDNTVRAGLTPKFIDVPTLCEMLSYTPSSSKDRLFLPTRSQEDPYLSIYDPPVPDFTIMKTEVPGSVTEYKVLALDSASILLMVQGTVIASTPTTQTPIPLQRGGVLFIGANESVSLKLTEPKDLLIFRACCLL

[21] = molecular target: T7, Mannose-6-phosphate isomerase; experiment: MPI enzyme activity inhibition – biochemical, fluorescence intensity, coupled assay, primary screen (AID 1209)

Chain of Neuropeptide Y receptor type 1 (P25929 whole entry): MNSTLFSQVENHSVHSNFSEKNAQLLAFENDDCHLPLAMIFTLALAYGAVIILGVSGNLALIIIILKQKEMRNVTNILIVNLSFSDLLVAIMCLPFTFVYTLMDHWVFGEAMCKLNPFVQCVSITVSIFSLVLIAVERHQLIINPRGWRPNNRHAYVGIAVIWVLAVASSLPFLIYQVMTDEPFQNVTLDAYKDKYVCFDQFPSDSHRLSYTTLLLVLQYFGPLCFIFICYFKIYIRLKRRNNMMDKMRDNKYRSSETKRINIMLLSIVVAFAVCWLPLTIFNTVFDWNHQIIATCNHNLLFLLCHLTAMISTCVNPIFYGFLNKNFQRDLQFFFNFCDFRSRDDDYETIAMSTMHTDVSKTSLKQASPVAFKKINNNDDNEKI
Chain of Mothers against decapentaplegic homolog 3 (P84022 whole entry): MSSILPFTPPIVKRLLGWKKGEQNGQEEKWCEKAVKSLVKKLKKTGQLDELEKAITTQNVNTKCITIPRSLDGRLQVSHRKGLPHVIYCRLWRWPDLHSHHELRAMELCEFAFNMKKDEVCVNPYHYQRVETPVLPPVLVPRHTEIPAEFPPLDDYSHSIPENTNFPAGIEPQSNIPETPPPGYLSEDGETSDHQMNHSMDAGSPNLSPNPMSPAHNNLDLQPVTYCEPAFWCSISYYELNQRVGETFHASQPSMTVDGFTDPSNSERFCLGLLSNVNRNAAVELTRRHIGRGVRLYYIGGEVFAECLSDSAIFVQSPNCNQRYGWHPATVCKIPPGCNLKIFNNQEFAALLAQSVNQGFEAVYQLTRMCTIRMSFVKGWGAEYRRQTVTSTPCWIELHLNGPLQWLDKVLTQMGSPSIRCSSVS
Chain of Cytochrome P450 2D6 (P10635 whole entry): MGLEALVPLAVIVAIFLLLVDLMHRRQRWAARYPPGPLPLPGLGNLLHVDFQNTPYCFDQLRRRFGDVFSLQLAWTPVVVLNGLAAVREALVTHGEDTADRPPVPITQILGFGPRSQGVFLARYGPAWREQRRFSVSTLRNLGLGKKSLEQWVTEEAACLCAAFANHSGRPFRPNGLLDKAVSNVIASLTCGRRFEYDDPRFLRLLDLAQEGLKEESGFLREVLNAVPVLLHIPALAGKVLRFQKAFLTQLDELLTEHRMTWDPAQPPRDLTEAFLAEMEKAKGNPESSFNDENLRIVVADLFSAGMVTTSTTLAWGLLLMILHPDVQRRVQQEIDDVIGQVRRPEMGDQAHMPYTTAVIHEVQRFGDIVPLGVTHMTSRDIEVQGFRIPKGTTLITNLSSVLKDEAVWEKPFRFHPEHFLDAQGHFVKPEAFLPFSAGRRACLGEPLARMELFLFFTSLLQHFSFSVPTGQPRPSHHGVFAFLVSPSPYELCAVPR
Chain of Genome polyprotein (P29990 2492-3391 limits assumed): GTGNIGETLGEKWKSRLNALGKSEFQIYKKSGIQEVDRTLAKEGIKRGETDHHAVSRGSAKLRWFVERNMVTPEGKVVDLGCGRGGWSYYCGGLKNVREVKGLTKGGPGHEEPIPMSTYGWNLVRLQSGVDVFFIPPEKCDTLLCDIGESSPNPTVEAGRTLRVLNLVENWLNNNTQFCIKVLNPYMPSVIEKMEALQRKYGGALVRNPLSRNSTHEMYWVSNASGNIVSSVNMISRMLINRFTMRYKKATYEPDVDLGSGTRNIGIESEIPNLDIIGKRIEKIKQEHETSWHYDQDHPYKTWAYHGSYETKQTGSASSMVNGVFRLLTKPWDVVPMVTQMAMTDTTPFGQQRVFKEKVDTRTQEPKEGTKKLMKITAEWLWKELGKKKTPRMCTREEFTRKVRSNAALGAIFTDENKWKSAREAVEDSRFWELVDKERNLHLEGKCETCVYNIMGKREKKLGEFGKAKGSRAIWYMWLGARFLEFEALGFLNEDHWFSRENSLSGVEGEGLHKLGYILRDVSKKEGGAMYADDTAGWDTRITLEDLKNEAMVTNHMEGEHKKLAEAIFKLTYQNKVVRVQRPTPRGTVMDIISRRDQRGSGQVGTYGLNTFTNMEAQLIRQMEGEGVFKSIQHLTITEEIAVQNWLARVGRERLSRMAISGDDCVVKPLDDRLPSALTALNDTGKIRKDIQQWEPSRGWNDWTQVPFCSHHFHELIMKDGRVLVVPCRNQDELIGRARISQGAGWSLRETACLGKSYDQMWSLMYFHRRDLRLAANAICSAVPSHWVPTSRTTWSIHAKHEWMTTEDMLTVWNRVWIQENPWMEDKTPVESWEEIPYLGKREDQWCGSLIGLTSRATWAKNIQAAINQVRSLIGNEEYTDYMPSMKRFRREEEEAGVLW
Chain of Neuropeptide Y receptor type 2 (P49146 whole entry): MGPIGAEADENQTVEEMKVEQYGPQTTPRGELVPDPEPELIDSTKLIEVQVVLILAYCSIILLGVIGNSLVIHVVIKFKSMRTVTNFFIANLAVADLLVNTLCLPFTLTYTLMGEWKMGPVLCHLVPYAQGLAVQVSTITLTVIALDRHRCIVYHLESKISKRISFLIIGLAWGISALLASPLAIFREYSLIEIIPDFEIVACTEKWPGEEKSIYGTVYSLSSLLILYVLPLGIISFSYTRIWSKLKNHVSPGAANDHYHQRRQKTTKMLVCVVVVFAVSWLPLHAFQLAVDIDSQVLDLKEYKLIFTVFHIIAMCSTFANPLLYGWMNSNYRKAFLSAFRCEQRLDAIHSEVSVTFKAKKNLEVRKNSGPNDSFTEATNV
Chain of Sphingosine 1-phosphate receptor 1 (P21453 whole entry): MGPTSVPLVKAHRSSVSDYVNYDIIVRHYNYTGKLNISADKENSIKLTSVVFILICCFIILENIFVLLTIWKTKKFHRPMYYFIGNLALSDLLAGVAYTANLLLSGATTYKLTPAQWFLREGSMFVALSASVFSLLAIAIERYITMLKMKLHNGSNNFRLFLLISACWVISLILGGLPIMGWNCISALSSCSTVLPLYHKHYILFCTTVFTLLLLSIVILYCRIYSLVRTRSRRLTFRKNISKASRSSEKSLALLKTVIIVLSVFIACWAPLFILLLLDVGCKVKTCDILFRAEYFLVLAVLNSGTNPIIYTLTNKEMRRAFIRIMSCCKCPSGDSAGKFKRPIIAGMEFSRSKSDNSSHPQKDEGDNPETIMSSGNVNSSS
Chain of Ion channel NompC (Q7T1G6 whole entry): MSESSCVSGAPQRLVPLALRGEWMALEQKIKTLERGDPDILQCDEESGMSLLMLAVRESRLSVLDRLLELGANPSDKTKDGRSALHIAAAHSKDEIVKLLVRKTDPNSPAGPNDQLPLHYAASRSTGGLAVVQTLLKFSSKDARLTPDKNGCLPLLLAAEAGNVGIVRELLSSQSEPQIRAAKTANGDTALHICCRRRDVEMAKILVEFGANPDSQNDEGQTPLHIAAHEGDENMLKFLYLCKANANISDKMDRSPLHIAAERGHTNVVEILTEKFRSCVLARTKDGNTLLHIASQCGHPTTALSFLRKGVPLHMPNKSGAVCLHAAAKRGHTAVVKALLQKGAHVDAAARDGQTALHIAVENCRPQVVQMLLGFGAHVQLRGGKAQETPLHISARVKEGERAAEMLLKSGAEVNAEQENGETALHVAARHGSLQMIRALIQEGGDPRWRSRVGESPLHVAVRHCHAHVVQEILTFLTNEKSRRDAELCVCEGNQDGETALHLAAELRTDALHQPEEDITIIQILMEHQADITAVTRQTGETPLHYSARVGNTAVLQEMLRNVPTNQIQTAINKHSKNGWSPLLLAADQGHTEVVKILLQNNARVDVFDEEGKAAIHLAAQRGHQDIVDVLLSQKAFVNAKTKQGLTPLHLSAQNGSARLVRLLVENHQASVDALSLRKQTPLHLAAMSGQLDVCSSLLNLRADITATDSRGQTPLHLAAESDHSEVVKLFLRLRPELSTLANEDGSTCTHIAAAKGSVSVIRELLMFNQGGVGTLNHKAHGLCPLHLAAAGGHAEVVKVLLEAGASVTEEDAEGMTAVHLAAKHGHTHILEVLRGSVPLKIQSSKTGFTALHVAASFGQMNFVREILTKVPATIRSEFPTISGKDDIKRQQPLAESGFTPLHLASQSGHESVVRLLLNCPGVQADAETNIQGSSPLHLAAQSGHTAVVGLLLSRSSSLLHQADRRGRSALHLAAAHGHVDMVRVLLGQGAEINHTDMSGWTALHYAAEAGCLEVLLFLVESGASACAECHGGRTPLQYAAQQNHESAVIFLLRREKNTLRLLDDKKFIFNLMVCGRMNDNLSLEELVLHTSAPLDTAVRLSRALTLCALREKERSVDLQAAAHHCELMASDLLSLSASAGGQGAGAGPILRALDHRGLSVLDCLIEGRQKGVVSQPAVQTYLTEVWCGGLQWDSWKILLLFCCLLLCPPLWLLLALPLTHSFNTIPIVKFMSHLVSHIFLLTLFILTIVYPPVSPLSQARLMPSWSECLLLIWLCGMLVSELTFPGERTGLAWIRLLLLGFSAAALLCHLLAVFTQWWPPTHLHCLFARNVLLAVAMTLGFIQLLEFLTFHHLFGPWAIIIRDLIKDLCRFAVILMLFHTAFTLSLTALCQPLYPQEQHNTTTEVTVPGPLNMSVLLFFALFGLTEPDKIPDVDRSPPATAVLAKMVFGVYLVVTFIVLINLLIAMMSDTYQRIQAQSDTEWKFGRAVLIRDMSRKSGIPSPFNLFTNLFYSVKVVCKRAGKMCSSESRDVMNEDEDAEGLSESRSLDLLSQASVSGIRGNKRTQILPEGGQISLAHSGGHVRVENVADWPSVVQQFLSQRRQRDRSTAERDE
Chain of Procathepsin L (P07711 whole entry): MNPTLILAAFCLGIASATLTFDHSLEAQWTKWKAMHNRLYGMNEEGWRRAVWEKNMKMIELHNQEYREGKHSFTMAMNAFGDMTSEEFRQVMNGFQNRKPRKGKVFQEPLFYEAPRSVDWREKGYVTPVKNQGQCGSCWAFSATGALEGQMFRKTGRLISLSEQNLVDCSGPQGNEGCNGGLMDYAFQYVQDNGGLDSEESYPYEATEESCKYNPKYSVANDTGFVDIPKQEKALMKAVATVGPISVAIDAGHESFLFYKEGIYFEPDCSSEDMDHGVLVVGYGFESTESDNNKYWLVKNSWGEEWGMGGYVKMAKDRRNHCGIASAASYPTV

CC1CCc2c(sc(NC(=O)c3ccccc3C(=O)O)c2C#N)C1 (stereo unspecified)
IC50 [1]: 24 µM (active)

Cn1nc(C(F)(F)F)c(-c2ccc(Br)cc2)c1NC(=O)c1cccnc1
IC50 [2]: > 100 µM (active)

CCOc1ccc(NC(=O)Nc2ccc3nccnc3c2)cc1
IC50 (Procathepsin L): > 59.6 µM (not active)
IC50 (Leucine aminopeptidase): 5.45 µM (active)
IC50 (Aspartyl aminopeptidase): > 73.5 µM (not active)

Clc1ccc(-c2nnn(Cc3nc4ccccc4s3)n2)cc1
IC50 [3]: 15.1 µM (not active)
IC50 [4]: 13.4 µM (not active)
IC50 (Protein skinhead-1): > 100 µM (inactive)

CCCc1cc(=O)[nH]c(N=C(NC(=O)C(C)N2C(=O)c3ccccc3C2=O)Nc2ccccc2)n1 (stereo unspecified)
IC50 [5]: 8.78 µM (active)

C=C1C(=O)C=C2CN(C(=O)c3ccccc3)[C@@](Cc3ccc(F)cc3)(C(=O)OC)[C@@H]12
EC50 [6]: 0.662 µM (active)
EC50 (Ion channel NompC): > 1.11 µM (inactive)
AC50 (Cytochrome P450 2D6): 39.8 µM (inconclusive)
AC50 (INS1): 1.58 µM (active)
IC50 [7]: > 80 µM (inactive)
IC50 [8]: 0.473 µM (active)
EC50 (BJ [9]): < 0.104 µM (active)
IC50 [10]: 3.7 µM (not active)
EC50 (BJ [11]): 0.554 µM (inconclusive)
IC50 [12]: 12 µM (not active)
EC50 (Mucolipin-3): 1.12 µM (active)
EC50 (BJ [13]): 8.08 µM (inconclusive)
EC50 (BJ [14]): 0.333 µM (active)

COc1ccc(-c2cccc(NC(=O)COc3ccc(Cl)cc3)c2)nn1
EC50 [15]: > 120 µM (not active)

O=C(Nc1ccc2oc(-c3ccc4ccccc4c3)nc2c1)c1cccs1
IC50 (Estrogen receptor): 27.7 µM (active)
AC50 [16]: 31 µM (active)
CC50 [17]: 18.6 µM (active)
EC50 [18]: > 99 µM (inactive)
EC50 [19]: > 99 µM (inactive)

Cc1cc(C(=O)N/N=C/c2ccc(O)c(O)c2O)c(C)n1-c1ccccc1
IC50 (Genome polyprotein): 41.9 µM (active)
IC50 [20]: > 50 µM (not active)
IC50 [21]: > 50 µM (not active)
